# Experimental data taken from patent US20230233541A1, “SUBSTITUTED BENZAMIDES AS MODULATORS OF TREX1” (Constellation Pharmaceuticals, Inc., priority 2020, published 2023).
# Legend:
# full length human TREX1 = target: T1, full length human TREX1 (Homo sapiens, UniProt Q9NSU2); experiment: TREX1 Biochemical Assay (fluorescence assay, degradation of dsDNA substrate); conditions: 150 pM TREX1, 60 nM dsDNA substrate, 25 minutes at room temperature; read-out: hTREX1 EC50
# T1 construct: N-terminally His-Tev tagged full length human TREX1; His-Tev (His tag with TEV protease site) (N); made in house; host or cells: E. coli
# T1 sequence (Q9NSU2 1-314): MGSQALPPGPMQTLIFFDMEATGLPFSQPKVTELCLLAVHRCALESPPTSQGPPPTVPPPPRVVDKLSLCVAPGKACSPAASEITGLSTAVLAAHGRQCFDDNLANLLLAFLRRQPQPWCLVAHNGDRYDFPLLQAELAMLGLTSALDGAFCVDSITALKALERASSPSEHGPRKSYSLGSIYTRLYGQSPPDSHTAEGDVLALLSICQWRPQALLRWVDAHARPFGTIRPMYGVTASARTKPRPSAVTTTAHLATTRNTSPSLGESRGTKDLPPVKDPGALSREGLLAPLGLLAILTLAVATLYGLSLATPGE
# Summary of the method: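 E. coli-expressed His-Tev-tagged full-length TREX1 (150 pM) with 60 nM quenched-fluorophore dsDNA in Tris pH 7.4, 150 mM NaCl, 100 mM MgCl2, 1% DMSO, 25 min room temperature, 10-point dose-response. EDTA stop; fluorescence 615 nm (ex 570 nm); IC50 from four-parameter fit against pre-quenched and no-inhibitor controls.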
# [1] = target: T2, human TREX2 (residues M44-A279) (Homo sapiens, UniProt Q9BQ50); experiment: TREX2 Biochemical Assay (fluorescence assay, degradation of dsDNA substrate); conditions: 2.5 nM TREX2, 60 nM dsDNA substrate, 25 minutes at room temperature; read-out: hTREX2 EC50
# T2 construct: human TREX2 (residues M44-A279, expressed in E. coli); His-Tev (His tag with TEV protease site) (N); made in house; host or cells: E. coli
# T2 sequence (Q9BQ50 44-279 isoform Q9BQ50-1): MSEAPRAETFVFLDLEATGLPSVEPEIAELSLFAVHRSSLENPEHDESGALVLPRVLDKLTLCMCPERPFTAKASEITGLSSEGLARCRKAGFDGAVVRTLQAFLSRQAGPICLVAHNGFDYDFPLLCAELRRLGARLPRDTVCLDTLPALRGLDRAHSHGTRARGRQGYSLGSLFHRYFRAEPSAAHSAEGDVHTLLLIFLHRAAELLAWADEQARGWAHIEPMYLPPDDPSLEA
# Summary of the method: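 His-Tev-tagged human TREX2 (M44-A279, E. coli-expressed) at 2.5 nM final, with 60 nM TEX615/quencher-labelled dsDNA in pH 7.4 Tris buffer with MgCl2 and 1.0% DMSO, 10-point dose-response, 25 min at room temperature, then EDTA quench. Fluorescence read at 615 nm (ex 570 nm). IC50 from four-parameter fit against pre-quenched and no-inhibitor controls.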
SMILES,EC50 (full length human TREX1),EC50 [1]
CC[C@H](c1cccc(Cl)c1Cl)N(Cc1cnc(C(=O)O)c(N)c1)C(=O)c1cc(F)cc(F)c1 [Compound 239],< 0.1 µM,1 to 10 µM
CNc1cc(CN(Cc2cccc(Cl)c2Cl)C(=O)c2cc(F)cc(F)c2)cnc1C(=O)O [Compound 240],< 0.1 µM,10 to 100 µM
COC(=O)CC[C@H](c1ccccc1Cl)N(Cc1cccnc1)C(=O)c1cc(F)cc(F)c1 [Compound 241],1 to 10 µM,10 to 100 µM
COC(=O)CC[C@@H](c1ccccc1Cl)N(Cc1cccnc1)C(=O)c1cc(F)cc(F)c1 [Compound 242],< 0.1 µM,10 to 100 µM
CN(C)c1cc(CN(Cc2cccc(Cl)c2Cl)C(=O)c2cc(F)cc(F)c2)cnc1C(=O)O [Compound 243],1 to 10 µM,10 to 100 µM
O=C(O)c1ccc(CN(Cc2cccc(Cl)c2Cl)C(=O)c2cc(F)cc(F)c2)c(O)n1 [Compound 247],0.1 to 1 µM,10 to 100 µM
CC[C@@H](c1cccc(Cl)c1OC)N(Cc1cnc(C(=O)O)c(N)c1)C(=O)c1cc(F)cc(F)c1 [Compound 250],< 0.1 µM,10 to 100 µM
CC[C@@H](c1cccc(OC)c1Cl)N(Cc1cnc(C(=O)O)c(N)c1)C(=O)c1cc(F)cc(F)c1 [Compound 252],< 0.1 µM,10 to 100 µM
CC[C@H](c1cccc(Cl)c1Cl)N(Cc1ccc(C(=O)O)nc1)C(=O)c1cc(F)cc(F)c1 [Compound 254],< 0.1 µM,1 to 10 µM
CC[C@H](c1cccc(Cl)c1Cl)N(Cc1ccc(C(=O)O)nc1)C(=O)c1cc(F)cc(F)c1 [Compound 255],< 0.1 µM,< 1 µM
O=C(O)c1ncc(CN(Cc2cccc(Cl)c2Cl)C(=O)c2cc(F)cc(F)c2)cc1O [Compound 257],< 0.1 µM,10 to 100 µM
CS(=O)(=O)NC(=O)c1ccc(CN(Cc2cccc(Cl)c2Cl)C(=O)c2cccc(F)c2)cn1 [Compound 259],1 to 10 µM,> 100 µM
O=C(c1cc(F)cc(F)c1)N(Cc1ccc(-c2noc(=O)[nH]2)nc1)Cc1cccc(Cl)c1Cl [Compound 262],0.1 to 1 µM,1 to 10 µM

# Now from value to compound:
EC50 (full length human TREX1),EC50 [1],SMILES
> 10 µM,10 to 100 µM,NCC[C@H](c1cccc(Cl)c1Cl)N(Cc1cccnc1)C(=O)c1cc(F)cc(F)c1 [Compound 238]
< 0.1 µM,10 to 100 µM,O=C(O)CC[C@@H](c1ccccc1Cl)N(Cc1cccnc1)C(=O)c1cc(F)cc(F)c1 [Compound 244]
1 to 10 µM,10 to 100 µM,O=C(O)CC[C@H](c1ccccc1Cl)N(Cc1cccnc1)C(=O)c1cc(F)cc(F)c1 [Compound 245]
< 0.1 µM,10 to 100 µM,NCCC[C@@H](c1cccc(Cl)c1Cl)N(Cc1cccnc1)C(=O)c1cc(F)cc(F)c1 [Compound 248]
1 to 10 µM,10 to 100 µM,NCCC[C@H](c1cccc(Cl)c1Cl)N(Cc1cccnc1)C(=O)c1cc(F)cc(F)c1 [Compound 249]
< 0.1 µM,1 to 10 µM,O=C(c1cc(F)cc(F)c1)N(Cc1cccnc1)[C@H](CCO)c1ccc(Cl)cc1Cl [Compound 260]
0.1 to 1 µM,10 to 100 µM,O=C(c1cc(F)cc(F)c1)N(Cc1cccnc1)[C@@H](CCO)c1ccc(Cl)cc1Cl [Compound 261]
